Tested on: HER2 phosphorylation
Details: HER2-driven cell lines, 2 hours, normoxic, immunoblot

## CN(C)CC=CC(=O)Nc1cc2c(Nc3ccc(F)c(Cl)c3)ncnc2cc1O[C@H]1CCOC1 [afatinib, N-[4-[(3-Chloro-4-fluorophenyl)amino]-7-[[(3S)-tetrahydro-3-furanyl]oxy]-6-quinazolinyl]-4(dimethylamino)-2-butenamide]
  Concentration inhibiting HER2 phosphorylation (pHER2): 100 nM
